32 compounds from patent US10738035B2, “Hepatitis B antiviral agents” (Enanta Pharmaceuticals, Inc., priority 2015, dated 2020) can be followed below.

Molecules are shown by their SMILES.

For one data set, the system named is hepatitis B virus (HBV). Briefly: HepAD38 antiviral assay (viral product accumulation, EC50). Conditions: HePAD38, 120 h, read-out: HepAD38 EC50.
The nature of data set [1]: Compound toxicity, ATPLite (CC50). Conditions: human, HepAD38 cells.
Method: (§1) Briefly, cells are passaged upon attaining confluency in DMEM/F12 media in the presence of 10% FBS, Penn/Strep, 250 μg/mL G418, and 1 μg/ml tetracycline. Novel compounds are screened by first washing cells three times with PBS to remove tetracycline, and plating in 96 well plates at 35,000 cells/well. Compounds dissolved in DMSO are then diluted 1:200 into wells containing cells. Five days after compound addition, material is harvested for analysis.
Compound toxicity is evaluated by seeding cells at 15,000 cells/well and treating with compound as described above.

Method for hepatitis B virus (HBV): as §1
On harvest day, virion DNA is obtained by lysing with Sidestep Lysis and Stabilization Buffer and then quantified via quantitative real time PCR. Commercially available ELISA kits are used to quantitate the viral proteins HBsAg (Alpco) or HbeAg (US Biological) by following the manufacturer's recommended protocol after diluting samples to match the linear range of their respective assays.

With `Cn1nc(NC(=O)N2CCC(O)CC2)cc1-c1ncc(-c2cc(F)c(F)c(F)c2)[nH]1` [Example 8], in the data set on hepatitis B virus (HBV), the EC50 is greater than 10 µM. In addition, the CC50 at 3 days in data set [1] was greater than 10 µM.

As to `Cn1nc(NC(=O)N2CCC(O)CC2)cc1C(=O)Nc1ccc(O)c(F)c1` [Example 35], the half-maximal effective concentration (EC50) in the data set on hepatitis B virus (HBV) was greater than 10 µM. Also, the CC50 at 3 days in data set [1] is greater than 30 µM.

For the compound `Cn1nc(NC(=O)N2CCC(O)CC2)c(Cl)c1C(=O)Nc1cc(F)c(F)c(F)c1` [Example 11], the 50% effective concentration (EC50) with hepatitis B virus (HBV) lay in the range of 1 to 10 µM. In addition, in data set [1], the CC50 at 3 days was greater than 30 µM.

As to `Cn1nc(NC(=O)N2CCC(O)CC2)cc1C(=O)Nc1ccc(F)c(O)c1` [Example 50], the EC50 with hepatitis B virus (HBV) is greater than 10 µM. This compound came in with a 50% cytotoxic concentration (CC50) at 3 days in data set [1] greater than 30 µM.

As to `O=S(=O)(c1cc2oc(Nc3cc(F)c(F)c(F)c3)nc2cc1Cl)N1CCC(O)CC1` [Example 4], the EC50 with hepatitis B virus (HBV) fell in the range of 1 to 10 µM. Moreover, in data set [1], the CC50 at 3 days was less than 10 µM.

With `CC(C)N(C)C(=O)Nc1cc(C(=O)Nc2cc(F)c(F)c(F)c2)n(C)n1` [Example 57], the EC50 in the data set with hepatitis B virus (HBV) was in the range of 1 to 10 µM. This compound also had a CC50 at 3 days in data set [1] of less than 10 µM.

Turning to `COc1ccc(NC(=O)c2cc(NC(=O)N3CCC(O)CC3)nn2C)cc1` [Example 64], the EC50 in the data set with hepatitis B virus (HBV) is greater than 10 µM. This compound yielded a half-maximal cytotoxic concentration (CC50) at 3 days in data set [1] greater than 30 µM.

On to `CN(CCCO)C(=O)Nc1cc(C(=O)Nc2cc(F)c(F)c(F)c2)n(C)n1` [Example 39], for which the EC50 with hepatitis B virus (HBV) is 1 to 10 µM. In data set [1], this compound came in with a CC50 at 3 days greater than 30 µM.

Regarding `Cn1nc(NC(=O)N2CCC(O)CC2)cc1C(=O)Nc1cc(F)c(F)c(F)c1` [Example 3], the EC50 in the data set on hepatitis B virus (HBV) is less than 1 µM. This compound yielded a CC50 at 3 days in data set [1] greater than 30 µM.

Regarding `O=S(=O)(c1c(Cl)ccc2c(Nc3cc(F)c(F)c(F)c3)n[nH]c12)N1CCC(O)CC1` [Example 1], in the data set with hepatitis B virus (HBV), the EC50 was greater than 10 µM. Besides, in data set [1], the CC50 at 3 days was greater than 30 µM.

As to `C=CCn1nc(NC(=O)N2CCC(O)CC2)cc1C(=O)Nc1cc(F)c(F)c(F)c1` [Example 33], in the data set with hepatitis B virus (HBV), the EC50 is 1 to 10 µM. This compound showed a CC50 at 3 days in data set [1] greater than 30 µM.

Turning to `Cn1nc(NC(=O)N2CCC(O)CC2)cc1C(=O)Nc1cc(F)c(Cl)c(F)c1` [Example 36], the EC50 in the data set on hepatitis B virus (HBV) is greater than 10 µM. Besides, in data set [1], the CC50 at 3 days was greater than 30 µM.

`Cn1nc(NC(=O)N2CCC(O)CC2)cc1C(=O)Nc1cccnc1` [Example 37]: the EC50 in the data set with hepatitis B virus (HBV) was greater than 10 µM. Further, in data set [1], the CC50 at 3 days is greater than 30 µM.

`Cn1nc(NC(=O)N2CCC(O)CC2)cc1C(=O)Nc1ccc(F)cc1Cl` [Example 59]: in the data set with hepatitis B virus (HBV), the EC50 is greater than 10 µM. In data set [1], this compound registered a CC50 at 3 days greater than 30 µM.

Take `O=C(Nc1cc(F)c(F)c(F)c1)c1cc(NC(=O)N2CCC(O)CC2)no1` [Example 9]: the EC50 in the data set on hepatitis B virus (HBV) is greater than 10 µM. This compound also came in with a CC50 at 3 days in data set [1] of less than 10 µM.

Turning to `Cn1nc(NC(=O)NCC2(C)CC2)cc1C(=O)Nc1cc(F)c(F)c(F)c1` [Example 26], in the data set with hepatitis B virus (HBV), the EC50 is less than 1 µM. The same compound came in with a CC50 at 3 days in data set [1] greater than 30 µM.

Turning to `Cn1nc(NC(=O)N2CCCCC2)cc1C(=O)Nc1cc(F)c(F)c(F)c1` [Example 16], the EC50 in the data set with hepatitis B virus (HBV) lay in the range of 1 to 10 µM. In data set [1], this compound returned a CC50 at 3 days of less than 10 µM.

`Cn1nc(NC(=O)N2CC(O)C2)cc1C(=O)Nc1cc(F)c(F)c(F)c1` [Example 38]: the EC50 with hepatitis B virus (HBV) was less than 1 µM. In addition, in data set [1], the CC50 at 3 days is 10 to 30 µM.

With `CCN(C)C(=O)Nc1cc(C(=O)Nc2cc(F)c(F)c(F)c2)n(C)n1` [Example 40], the EC50 with hepatitis B virus (HBV) was in the range of 1 to 10 µM. Besides, the CC50 at 3 days in data set [1] was less than 10 µM.

On to `Cn1nc(NC(=O)N2CCC(O)CC2)cc1C(=O)Nc1cccc(F)c1F` [Example 45], for which, in the data set on hepatitis B virus (HBV), the EC50 is 1 to 10 µM. In data set [1], the CC50 at 3 days is greater than 30 µM.

As for `Cn1nc(NC(=O)N2CCC(O)CC2)cc1C(=O)Nc1ccc(F)c(C#N)c1` [Example 53], the EC50 in the data set with hepatitis B virus (HBV) lay in the range of 1 to 10 µM. Further, in data set [1], the CC50 at 3 days is greater than 30 µM.

Regarding `COc1cc(NC(=O)c2cc(NC(=O)N3CCC(O)CC3)nn2C)ccc1F` [Example 55], in the data set with hepatitis B virus (HBV), the EC50 was greater than 10 µM. In data set [1], this compound displayed a CC50 at 3 days greater than 30 µM.

For the compound `CCCN(C)C(=O)Nc1cc(C(=O)Nc2cc(F)c(F)c(F)c2)n(C)n1` [Example 30], the EC50 in the data set on hepatitis B virus (HBV) was less than 1 µM. The same compound registered a CC50 at 3 days in data set [1] greater than 30 µM.

Consider `Cn1nc(NC(=O)NCCS(C)(=O)=O)cc1C(=O)Nc1cc(F)c(F)c(F)c1` [Example 42], for which, in the data set with hepatitis B virus (HBV), the EC50 fell in the range of 1 to 10 µM. In addition, the CC50 at 3 days in data set [1] was greater than 30 µM.

In the case of `Cn1nc(NC(=O)N2CCC(O)CC2)cc1C(=O)Nc1ccc(C(=O)O)cc1` [Example 74], the EC50 in the data set with hepatitis B virus (HBV) was greater than 10 µM. The compound further yielded a CC50 at 3 days in data set [1] greater than 30 µM.

For `Cn1nc(NC(=O)N2CCC(O)C2)cc1C(=O)Nc1cc(F)c(F)c(F)c1` (stereo not shown) [Example 29], the EC50 in the data set on hepatitis B virus (HBV) lay within 1 to 10 µM. In data set [1], this compound displayed a CC50 at 3 days of less than 10 µM.

Consider `Cn1nc(NC(=O)N2CCC(O)CC2)cc1C(=O)Nc1ccc(-c2ccccc2)cc1` [Example 70], for which the EC50 in the data set on hepatitis B virus (HBV) was greater than 10 µM. The same compound had a CC50 at 3 days in data set [1] greater than 30 µM.

Take `Cn1nc(NC(=O)N2CCC(O)CC2)cc1C(=O)Nc1ccc(O)cc1` [Example 62]: in the data set with hepatitis B virus (HBV), the EC50 is greater than 10 µM. Further, the CC50 at 3 days in data set [1] was greater than 30 µM.

On to `Cc1cc(NC(=O)c2cc(NC(=O)N3CCC(O)CC3)nn2C)ccc1F` [Example 54], for which the EC50 in the data set with hepatitis B virus (HBV) is less than 1 µM. Also, the cytotoxic concentration (CC50) at 3 days in data set [1] is less than 10 µM.

Turning to `CC(C)c1ccc(NC(=O)c2cc(NC(=O)N3CCC(O)CC3)nn2C)cc1` [Example 67], in the data set on hepatitis B virus (HBV), the EC50 was greater than 10 µM. The same compound came in with a cytotoxic concentration (CC50) at 3 days in data set [1] greater than 30 µM.

In the case of `Cn1nc(NC(=O)N2CCC(O)CC2)cc1C(=O)Nc1cc(F)c(F)c(Cl)c1` [Example 60], the EC50 with hepatitis B virus (HBV) was in the range of 1 to 10 µM. Moreover, the CC50 at 3 days in data set [1] is less than 10 µM.

In the case of `Cn1cc(NC(=O)N2CCC(O)CC2)nc1C(=O)Nc1cc(F)c(F)c(F)c1` [Example 10], the half-maximal effective concentration (EC50) in the data set on hepatitis B virus (HBV) is greater than 10 µM. The compound further yielded a CC50 at 3 days in data set [1] greater than 30 µM.
